Data published in US11325937B2, “Glycoside compound and preparation method therefor, composition, application, and intermediate” (SHANGHAI HUTCHISON PHARMACEUTICALS LIMITED, priority 2018, dated 2022).

Columns and labels:
[1] = test system: VEGF-A mRNA expression in macrophages (RAW264.7); experiment: In vitro macrophage experiment: activity of compounds to promote VEGF-A mRNA expression (RT-qPCR); type: cell-based; conditions: Mus musculus, RAW264.7 macrophages, 3 h, relative expression, no drug = 1, read-out: Expression level of VEGF-A mRNA; for fold induction at 500 µM: 0.5 mM; for fold induction at 1000 µM: 1 mM; for fold induction at 2000 µM: 2 mM; for fold induction at 3000 µM: 3 mM; for fold induction at 4000 µM: 4 mM
Summary of the method: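 RAW264.7 macrophages were exposed to test compounds at various concentrations for 3 h at 37° C. VEGF-A mRNA was measured by SYBR Green RT-qPCR, normalized to β-Actin, and expressed as 2^−ΔΔCt relative to untreated cells (=1). Activity is the maximal fold induction, with ≥4 as hit criterion.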

[2] = Acute toxicity test of TG-028; type: in vivo
Description: In addition, an acute toxicity test of TG-028 was conducted.

[3] = test system: HUVEC-12 endothelial cells; experiment: Migration of HUVEC-12 endothelial cells (scratch test); type: cell-based, Human
Description: The experiment included seven groups. In Group 1, HUVEC-12 endothelial cells (purchased from Shanghai RongChuang Biotech Co., Ltd.) were treated directly with simple DMEM medium (Gibcol, Shanghai) containing 10% FBS (SERANA, Germany) (control). In Group 2, the endothelial cells were treated with the supernatant obtained 24 h after macrophages were cultured with DMEM medium containing 10% FBS (s-control). In Group 3, the endothelial cells cultured with DMEM medium containing 10% FBS were treated directly with TG-028 (TG-028, 10 μM). In Group 4, the endothelial cells were treated with the supernatant obtained after macrophages cultured with DMEM medium containing 10% FBS were treated and co-incubated with TG-028 for 24 h (s-TG-028, […]). In Group 5, the endothelial cells cultured with DMEM medium containing 10% FBS were treated directly with Cpd-18 (Salvianolate) (cpd-18, 10 μM). In Group 6, the endothelial cells were treated with the supernatant obtained after macrophages cultured with DMEM medium containing 10% FBS were treated and co-incubated with Cpd-18 (Salvianolate, 10 μM) for 24 h (s-cpd18). In Group 7, the endothelial cells cultured with DMEM medium containing 10% FBS were treated directly with VEGFD (Recombinant Human VEGF165, 10 ng/mL).
Human umbilical vein endothelial cells HUVEC-12 in logarithmic growth phase were counted, adjusted to a cell density of 5×10^5 cells/mL, and inoculated in 1 mL per well in a 6-well plate. The cells were conventionally cultured in an incubator to form monolayer cells of 90% confluency. The 6-well plate fully plated with cells was scratched perpendicular to the cell surface with a 200 μL pipette tip from one end to the other end of the well. The scratches were made transversely with the pipette tip being as perpendicular as possible to the bottom of the plate. […]
The medium was aspirated and the cells scratched off were washed off with PBS. […] The migration of endothelial cells was detected according to the cell scratch method and the relative migration rate was calculated. […]

Compound	fold induction at 500 µM [1]	fold induction at 1000 µM [1]	fold induction at 2000 µM [1]	fold induction at 3000 µM [1]	fold induction at 4000 µM [1]	therapeutic index LD50/ED50 ([2]; 616.59/2.61)	LD50 ([2]; in vivo, acute toxicity test) [mg/kg]	effect on migration of endothelial cells (in words) ([3]; HUVEC-12 treated with supernatant of macrophages co-incubated 24 h with compound, 10 μM (s- groups))	effect on migration of endothelial cells (in words) ([3]; direct treatment of HUVEC-12, 24 h, compounds 10 μM, VEGF165 10 ng/mL, vs control medium)
COc1ccc(CCCCO[C@@H]2O[C@H](CO)[C@@H](O)[C@H](O)[C@H]2O)cc1 [TG-028]	0.79	0.39	6.77	13.4	4.23	236	617	comparable effect on the migration of endothelial cells as VEGF	significant effect on the migration of endothelial cells
OC[C@H]1O[C@@H](OCCc2ccccc2)[C@H](O)[C@@H](O)[C@@H]1O [TG-055]	6.36	2.11	4.44	3.81	6.11	–	–	–	–
